The NIST ThermoML archive (doi:10.1016/j.jct.2010.10.018)
± gives the expanded uncertainty stated by the source.

Assay: xn = mol fraction of the nth substance listed
Conditions: 101 kPa, Liquid, Vibrating tube method

CC(C)(C)O [2-methylpropan-2-ol] + O
Conditions	mass density [kg/m3]
298.15 K, x1 = 0.6029	813.22 ± 0.15
298.15 K, x1 = 0.6909	803.57 ± 0.16
298.15 K, x1 = 0.726	800.1 ± 0.16
298.15 K, x1 = 0.7999	794.07 ± 0.16
298.15 K, x1 = 0.8711	788.3 ± 0.17
298.15 K, x1 = 0.9183	785.07 ± 0.17
298.15 K, x1 = 0.9574	782.74 ± 0.17
298.15 K, x1 = 0.9652	782.29 ± 0.17
298.15 K, x1 = 0.9795	781.56 ± 0.17
298.15 K, x1 = 0.9873	781.18 ± 0.17
298.15 K, x1 = 0.9935	780.83 ± 0.17
298.15 K, x1 = 0.9963	780.69 ± 0.17
299.15 K, x1 = 0.9821	780.36 ± 0.17
299.15 K, x1 = 0.9944	779.76 ± 0.17
299.15 K, x1 = 0.996	779.69 ± 0.17
299.15 K, x1 = 1	779.48 ± 0.17
303.15 K, x1 = 0.9821	776.31 ± 0.17
303.15 K, x1 = 0.9944	775.66 ± 0.17
303.15 K, x1 = 0.996	775.58 ± 0.17
303.15 K, x1 = 1	775.39 ± 0.17
308.15 K, x1 = 0.00089	993.36 ± 0.11
308.15 K, x1 = 0.00146	992.96 ± 0.11
308.15 K, x1 = 0.00269	992.08 ± 0.11
308.15 K, x1 = 0.00403	991.15 ± 0.11
308.15 K, x1 = 0.00513	990.39 ± 0.11
308.15 K, x1 = 0.00761	988.7 ± 0.11
308.15 K, x1 = 0.01405	984.86 ± 0.11
308.15 K, x1 = 0.0248	978.65 ± 0.11
308.15 K, x1 = 0.03494	973.48 ± 0.11
308.15 K, x1 = 0.04241	969.43 ± 0.11
308.15 K, x1 = 0.05218	963.7 ± 0.12
308.15 K, x1 = 0.05887	959.67 ± 0.12
308.15 K, x1 = 0.06973	953.09 ± 0.12
308.15 K, x1 = 0.1125	928.56 ± 0.12
308.15 K, x1 = 0.1566	906.33 ± 0.13
308.15 K, x1 = 0.208	886.22 ± 0.13
308.15 K, x1 = 0.2408	874.67 ± 0.14
308.15 K, x1 = 0.3023	856.97 ± 0.14
308.15 K, x1 = 0.3451	846.68 ± 0.14
308.15 K, x1 = 0.4045	834.17 ± 0.15
308.15 K, x1 = 0.4225	830.99 ± 0.15
308.15 K, x1 = 0.4653	823.8 ± 0.15
308.15 K, x1 = 0.5344	812.83 ± 0.15
308.15 K, x1 = 0.6029	803.86 ± 0.16
308.15 K, x1 = 0.6909	794.03 ± 0.16
308.15 K, x1 = 0.726	790.54 ± 0.16
308.15 K, x1 = 0.7999	784.37 ± 0.17
308.15 K, x1 = 0.8711	778.45 ± 0.17
308.15 K, x1 = 0.9183	775.09 ± 0.17
308.15 K, x1 = 0.9574	772.63 ± 0.17
308.15 K, x1 = 0.9652	772.13 ± 0.17
308.15 K, x1 = 0.9795	771.34 ± 0.17
308.15 K, x1 = 0.9821	771.14 ± 0.17
308.15 K, x1 = 0.9944	770.47 ± 0.17
308.15 K, x1 = 0.996	770.38 ± 0.17
308.15 K, x1 = 1	770.14 ± 0.17
313.15 K, x1 = 0.9821	765.88 ± 0.18
313.15 K, x1 = 0.9944	765.18 ± 0.18
313.15 K, x1 = 0.996	765.09 ± 0.18
313.15 K, x1 = 1	764.84 ± 0.18
318.15 K, x1 = 0.9821	760.53 ± 0.18
318.15 K, x1 = 0.9944	759.8 ± 0.2
318.15 K, x1 = 0.996	759.71 ± 0.18
318.15 K, x1 = 1	759.46 ± 0.18
323.15 K, x1 = 0.00089	987.36 ± 0.11
323.15 K, x1 = 0.00146	986.95 ± 0.11
323.15 K, x1 = 0.00269	986.1 ± 0.11
323.15 K, x1 = 0.00403	985.16 ± 0.11
323.15 K, x1 = 0.00513	984.39 ± 0.11
323.15 K, x1 = 0.00761	982.75 ± 0.11
323.15 K, x1 = 0.01405	978.38 ± 0.11
323.15 K, x1 = 0.0248	971.52 ± 0.11
323.15 K, x1 = 0.03494	965.43 ± 0.12
323.15 K, x1 = 0.04241	960.77 ± 0.12
323.15 K, x1 = 0.05218	954.06 ± 0.12
323.15 K, x1 = 0.05887	949.57 ± 0.12
323.15 K, x1 = 0.06973	942.66 ± 0.12
323.15 K, x1 = 0.1125	916.92 ± 0.13
323.15 K, x1 = 0.1566	893.97 ± 0.13
323.15 K, x1 = 0.208	873.34 ± 0.14
323.15 K, x1 = 0.2408	861.46 ± 0.14
323.15 K, x1 = 0.3023	843.45 ± 0.14
323.15 K, x1 = 0.3451	832.95 ± 0.15
323.15 K, x1 = 0.4045	820.18 ± 0.15
323.15 K, x1 = 0.4225	816.91 ± 0.15
323.15 K, x1 = 0.4653	809.6 ± 0.15
